# Assay results from US8680052B1, “Methods of treating, reducing the incidence of, and/or preventing ischemic events” (The Medicines Company, priority 2013, dated 2014).
# Like-named read-outs stand apart in the source and are kept apart here.
# Test system: patients with acute coronary syndromes undergoing PCI
# Details: for IDR / MI / Mortality/MI/IDR / Mortality/Q-wave MI/IDR / Mortality/Q-wave MI/Stent thrombosis / Q-wave MI / Stent thrombosis / All-cause mortality: 30 days; for Angiographic complications (site reported): Abrupt vessel closure / Angiographic complications (site reported): Acute stent thrombosis / Angiographic complications (site reported): Need for urgent CABG / Angiographic complications (site reported): New thrombus or suspected thrombus / Angiographic complications (site reported): Threatened abrupt closure / Angiographic complications (site reported): Unsuccessful procedure: index PCI
structure (smiles),measurement,setting,value
"COC(=O)[C@H](c1ccccc1Cl)N1CCc2sccc2C1 [Clopidogrel, clopidogrel, reference compound]",IDR,ITT With STEMI,15 (3.0) no. (%)
same,MI,ITT With STEMI,17 (3.4) no. (%)
same,Mortality/MI/IDR,ITT With STEMI,41 (8.2) no. (%)
same,Mortality/Q-wave MI/IDR,ITT With STEMI,31 (6.2) no. (%)
same,Mortality/Q-wave MI/Stent thrombosis,ITT With STEMI,26 (5.2) no. (%)
same,Q-wave MI,ITT With STEMI,0 (0.0) no. (%)
same,Stent thrombosis,ITT With STEMI,10 (2.0) no. (%)
same,All-cause mortality,ITT Without STEMI,31 (0.8) no. (%)
same,IDR,ITT Without STEMI,54 (1.4) no. (%)
same,MI,ITT Without STEMI,276 (7.1) no. (%)
same,Mortality/MI/IDR,ITT Without STEMI,332 (8.6) no. (%)
same,Mortality/Q-wave MI/IDR,ITT Without STEMI,88 (2.3) no. (%)
same,Mortality/Q-wave MI/Stent thrombosis,ITT Without STEMI,56 (1.4) no. (%)
same,Q-wave MI,ITT Without STEMI,15 (0.4) no. (%)
same,Stent thrombosis,ITT Without STEMI,20 (0.5) no. (%)
same,All-cause mortality,MITT,38 (0.9) no. (%)
same,IDR,MITT,66 (1.5) no. (%)
same,MI,MITT,292 (6.8) no. (%)
same,Mortality/MI/IDR,MITT,360 (8.4) no. (%)
same,Mortality/Q-wave MI/IDR,MITT,107 (2.5) no. (%)
same,Mortality/Q-wave MI/Stent thrombosis,MITT,73 (1.7) no. (%)
same,Q-wave MI,MITT,15 (0.4) no. (%)
same,Stent thrombosis,MITT,30 (0.7) no. (%)
same,All-cause mortality,MITT With STEMI,11 (2.5) no. (%)
same,IDR,MITT With STEMI,14 (3.2) no. (%)
same,MI,MITT With STEMI,16 (3.6) no. (%)
same,Mortality/MI/IDR,MITT With STEMI,34 (7.7) no. (%)
same,Mortality/Q-wave MI/IDR,MITT With STEMI,25 (5.6) no. (%)
same,Mortality/Q-wave MI/Stent thrombosis,MITT With STEMI,21 (4.7) no. (%)
same,Q-wave MI,MITT With STEMI,0 (0.0) no. (%)
same,Stent thrombosis,MITT With STEMI,10 (2.3) no. (%)
same,All-cause mortality,MITT Without STEMI,27 (0.7) no. (%)
same,IDR,MITT Without STEMI,52 (1.4) no. (%)
same,MI,MITT Without STEMI,276 (7.2) no. (%)
same,Mortality/MI/IDR,MITT Without STEMI,326 (8.5) no. (%)
same,Mortality/Q-wave MI/IDR,MITT Without STEMI,82 (2.1) no. (%)
same,Mortality/Q-wave MI/Stent thrombosis,MITT Without STEMI,52 (1.4) no. (%)
same,Q-wave MI,MITT Without STEMI,15 (0.4) no. (%)
same,Stent thrombosis,MITT Without STEMI,20 (0.5) no. (%)
same,All-cause mortality,Safety population,41 (0.9) no. (%)
same,IDR,Safety population,67 (1.6) no. (%)
same,MI,Safety population,293 (6.8) no. (%)
same,Mortality/MI/IDR,Safety population,365 (8.5) no. (%)
same,Mortality/Q-wave MI/IDR,Safety population,111 (2.6) no. (%)
same,Mortality/Q-wave MI/Stent thrombosis,Safety population,76 (1.8) no. (%)
same,Q-wave MI,Safety population,15 (0.3) no. (%)
same,Stent thrombosis,Safety population,30 (0.7) no. (%)
same,Angiographic complications (site reported): Abrupt vessel closure,ITT,22 (0.5)
same,Angiographic complications (site reported): Acute stent thrombosis,ITT,5 (0.1)
same,Angiographic complications (site reported): Need for urgent CABG,ITT,7 (0.2)
same,Angiographic complications (site reported): New thrombus or suspected thrombus,ITT,23 (0.5)
same,Angiographic complications (site reported): Threatened abrupt closure,ITT,12 (0.3)
same,Angiographic complications (site reported): Unsuccessful procedure,ITT,103 (2.4)
same,Angiographic complications (site reported): Abrupt vessel closure,ITT With STEMI,3 (0.7)
same,Angiographic complications (site reported): Acute stent thrombosis,ITT With STEMI,0 (0.0)
same,Angiographic complications (site reported): Need for urgent CABG,ITT With STEMI,0 (0.0)
same,Angiographic complications (site reported): New thrombus or suspected thrombus,ITT With STEMI,7 (1.5)
same,Angiographic complications (site reported): Threatened abrupt closure,ITT With STEMI,2 (0.4)
same,Angiographic complications (site reported): Unsuccessful procedure,ITT With STEMI,11 (2.4)
same,Angiographic complications (site reported): Abrupt vessel closure,ITT Without STEMI,19 (0.5)
same,Angiographic complications (site reported): Acute stent thrombosis,ITT Without STEMI,5 (0.1)
same,Angiographic complications (site reported): Need for urgent CABG,ITT Without STEMI,7 (0.2)
same,Angiographic complications (site reported): New thrombus or suspected thrombus,ITT Without STEMI,16 (0.4)
same,Angiographic complications (site reported): Threatened abrupt closure,ITT Without STEMI,10 (0.3)
same,Angiographic complications (site reported): Unsuccessful procedure,ITT Without STEMI,92 (2.4)
same,Angiographic complications (site reported): Abrupt vessel closure,MITT,22 (0.5)
same,Angiographic complications (site reported): Acute stent thrombosis,MITT,5 (0.1)
same,Angiographic complications (site reported): Need for urgent CABG,MITT,6 (0.1)
same,Angiographic complications (site reported): New thrombus or suspected thrombus,MITT,22 (0.5)
same,Angiographic complications (site reported): Threatened abrupt closure,MITT,12 (0.3)
same,Angiographic complications (site reported): Unsuccessful procedure,MITT,103 (2.4)
same,Angiographic complications (site reported): Abrupt vessel closure,MITT NSTEMI,19 (0.5)
same,Angiographic complications (site reported): Acute stent thrombosis,MITT NSTEMI,5 (0.1)
same,Angiographic complications (site reported): Need for urgent CABG,MITT NSTEMI,6 (0.2)
same,Angiographic complications (site reported): New thrombus or suspected thrombus,MITT NSTEMI,16 (0.4)
same,Angiographic complications (site reported): Threatened abrupt closure,MITT NSTEMI,10 (0.3)
same,Angiographic complications (site reported): Unsuccessful procedure,MITT NSTEMI,92 (2.4)
same,Angiographic complications (site reported): Abrupt vessel closure,Safety population,22 (0.5)
same,Angiographic complications (site reported): Acute stent thrombosis,Safety population,5 (0.1)
same,Angiographic complications (site reported): Need for urgent CABG,Safety population,6 (0.1)
same,Angiographic complications (site reported): New thrombus or suspected thrombus,Safety population,22 (0.5)
same,Angiographic complications (site reported): Threatened abrupt closure,Safety population,12 (0.3)
same,Angiographic complications (site reported): Unsuccessful procedure,Safety population,103 (2.4)
